{
  "source": "paper PMC3368886",
  "about": "“ATPase Cycle and DNA Unwinding Kinetics of RecG Helicase” (PLoS ONE, 2012)",
  "molecular_target": "T1, RecG⋅DNA(A40:B40) (Thermotoga maritima, UniProt Q9WY48)",
  "T1 construct": "made in house",
  "T1 sequence (Q9WY48 1-780)": "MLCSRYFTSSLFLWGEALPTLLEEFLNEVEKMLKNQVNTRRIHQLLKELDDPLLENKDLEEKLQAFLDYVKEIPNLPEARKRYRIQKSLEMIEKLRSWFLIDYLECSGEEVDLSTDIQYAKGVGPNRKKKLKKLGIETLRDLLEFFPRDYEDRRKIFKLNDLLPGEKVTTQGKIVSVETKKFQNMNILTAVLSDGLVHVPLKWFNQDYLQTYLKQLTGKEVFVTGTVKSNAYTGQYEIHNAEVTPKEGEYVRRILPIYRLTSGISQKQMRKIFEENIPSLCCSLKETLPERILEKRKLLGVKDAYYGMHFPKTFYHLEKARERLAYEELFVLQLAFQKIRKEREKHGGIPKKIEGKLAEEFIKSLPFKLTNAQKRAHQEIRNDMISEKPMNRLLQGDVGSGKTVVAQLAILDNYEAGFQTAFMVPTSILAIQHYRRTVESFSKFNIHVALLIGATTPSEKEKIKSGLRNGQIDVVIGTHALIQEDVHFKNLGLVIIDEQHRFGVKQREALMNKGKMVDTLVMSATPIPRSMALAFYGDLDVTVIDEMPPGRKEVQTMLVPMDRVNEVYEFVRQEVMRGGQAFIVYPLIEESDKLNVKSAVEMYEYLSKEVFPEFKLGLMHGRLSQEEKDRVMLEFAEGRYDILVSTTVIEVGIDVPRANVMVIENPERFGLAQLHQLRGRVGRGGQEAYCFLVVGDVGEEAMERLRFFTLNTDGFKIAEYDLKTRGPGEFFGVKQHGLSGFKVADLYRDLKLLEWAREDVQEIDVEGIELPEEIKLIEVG",
  "assay": "Pi release with excess ATP, global fit to ATPase cycle model",
  "assay_type": "biochemical",
  "details": "0.5 µM RecG, 2.5 µM DNA (A40:B40)",
  "method": "The rate of Pi release was measured after mixing RecG⋅DNA with excess ATP, using the phosphate biosensor, in the stopped-flow apparatus (Figure 6A). […] Both phases are dependent on ATP concentration. The lag decreased, while the rate of the linear phase increased with greater concentrations of ATP. The lag is due to the steps prior to Pi release, namely ATP binding and cleavage. […] Such a burst phase would result from the relatively fast Pi release of the initial cycle before the Pi release of subsequent cycles was limited by slow ADP release.\nFigure 6 ATPase cycle measurements with unmodified nucleotides. (A) Phosphate measurements at different ATP concentrations. 0.5 µM RecG, premixed with 2.5 µM DNA (A40:B40), was then mixed in the stopped-flow apparatus with ATP at the micromolar concentrations shown, in the presence of 10 µM MDCC-PBP. (B) Best fit time courses of the Pi release, based upon a model of the ATPase cycle, as described in the text. Curves were obtained by glogal fitting the curves at different concentrations, using Global kinetic Explorer. Note that in comparison, the experimental time courses show a small transient of Pi at times <100 ms. This is likely to be due to free Pi and this behavior, overlaying a lag, has been observed previously in multi-turnover measurements. (C) ADP Release kinetics. 10 µM RecG⋅DNA (A40∶B40) was pre-bound with 10 µM ADP before mixing with an excess of mantADP (20 µM): these concentrations are final in the mixing chamber. The increase in fluorescence was fitted to single exponential giving the dissociation rate constant of 11.4 (±2.2) s^−1. Rate constants were independent of mantADP concentration in the range of 20–80 µM.\nA scheme of the ATPase cycle (Figure 2) was used to simulate the data to assess the individual rate constants. […] The simulated traces (Figure 6B) were obtained from a global fit to the experimental data. This was done by allowing only the rate constants that have maximum influence on the curve shapes to vary. Cleavage and Pi release were assumed to be irreversible. For the fit, Pi release was fixed at 100 s^–1, ADP release at 12.5 s^–1, as the fitting was relatively insensitive to changes in these constants. […] The resulting best fit gave rate constants for ATP binding as 0.65 (±0.02) µM^−1s^−1, dissociation of ATP as 10.0 (±0.6) s^−1, cleavage as 7.1 (±0.1) s^−1. The fit gave a cleavage rate constant similar to the value of k cat from the steady-state analysis (Table 1a). The rate constant for ADP release may be only slightly larger than that of cleavage step.\nData were fitted to theoretical equations using the stopped-flow software or Grafit. Kinetic simulations were performed using Berkeley Madonna (Version 8.3, University of California at Berkeley) and using Global Kinetic Explorer (Kintek). […]",
  "data": [
    {"smiles": "Nc1ncnc2c1ncn2[C@@H]1O[C@H](COP(=O)(O)OP(=O)(O)OP(=O)(O)O)[C@@H](O)[C@H]1O", "note": "[ATP]", "values": [
      {"measurement": "cleavage (global fit)", "result": "7.1 (±0.1) s^−1"},
      {"measurement": "dissociation of ATP (global fit)", "result": "10.0 (±0.6) s^−1"},
      {"measurement": "rate constant for ATP binding (global fit)", "result": "0.65 (±0.02) µM^−1s^−1"}
    ]}
  ]
}
